The values below come from a melting point compilation (Tetko et al.).

As to `C[C@]12CCC(=O)C[C@@H]1CC[C@@H]1[C@@H]2CC[C@]2(C)C(=O)CC[C@@]12O`, the melting point fell in the range of 225 to 227 °C.
`CN(C)c1ccccc1-c1ccccc1P(C1CCCCC1)C1CCCCC1` registered a melting point of 123 °C.
With `CC1C(=O)C2(C)CCC1C2(C)C` (centres undefined) the figure was 38 °C; with `Nc1ccc(Oc2ccc(Cl)cc2)cc1`, 102 °C.
The value for `Cc1ccccc1Oc1cccnn1` was 78 °C; that for `O=C1c2c(O)cccc2C(C2OC(CO)C(O)C(O)C2O)c2cc(CO)cc(O)c21` (centres undefined) was 148 °C.
The compound `COC(=O)c1cnc(NN)nc1C(F)(F)F` had a melting point of 132 to 134 °C.
With `CCCCC(=O)CCCC` the figure was -3.8 °C.
The value for `OCc1ccccc1Cn1cncn1` was 98 to 100 °C.
With `Cc1cc(CO)n[nH]1` the figure was 78 to 80 °C; with `O=CC(O)C(O)CO` (centres undefined), 164 °C; with `Cc1cc(C)c(C(=O)O)cc1C`, 152 °C.
The compound `CCN(CC)c1ccc([N+](=O)[O-])cc1` displayed a melting point of 77.5 °C.
With `CC[C@H](C)[C@@H](N)C(=O)O` the figure was 285 °C; with `O=C(CC(C(=O)c1ccccc1)C(CC(=O)c1ccccc1)C(=O)c1ccccc1)c1ccccc1` (centres undefined), 169 °C; with `Cc1cc(Br)ncc1Br`, 38 °C.
The value for `Cc1ccc([Si](C)(Cl)Cl)cc1` was 57 °C.
`C/C=C(\C)c1ccccc1` had a melting point of -23.5 °C.
The value for `Nc1cc2ccccc2cc1C(=O)O` was 216 °C.
Take `COc1ccc(-c2nnc3n2NC(c2ccccc2)S3)cc1` (centres undefined): the melting point came to 134 °C.
The value for `COc1ccc(C=CC(=O)c2ccc(OC)cc2OC)cc1` was 97 °C; that for `FC(F)(F)C(F)(F)C(F)(F)C(F)(F)C(F)(F)C(F)(F)C(F)(F)C(F)(F)C(F)(F)C(F)(F)C(F)(F)C(F)(F)I` was 99 to 101 °C.
With `Cn1c(S)nnc1Cc1nc(-c2cnccn2)no1` the figure was 203 to 204 °C; with `O=C(OCC1CCC2OC2C1)C1CCC2OC2C1` (centres undefined), -37 °C.
With `Clc1c(Cl)c(Cl)c(C(Cl)Cl)c(Cl)c1Cl` the figure was 120 °C; with `O=C(O)c1ccc(-n2ccnc2)cc1`, 309 to 311 °C; with `OCc1cc(Cl)cc(Cl)c1O`, 82 to 83 °C.
As for `C=C(Br)CC1(C(C)C)C(=O)NC(=O)NC1=O`, the melting point is 177 °C.
The value for `Cc1cc(O)nc(C(C)C)n1` was 173 °C.
`CC(=O)CC(O)C(Cl)(Cl)Cl` (centres undefined) returned a melting point of 75 to 76 °C.
The value for `CN1C(=N)NC(=O)C1Cc1ccc(O)cc1` (centres undefined) was 221 to 225 °C.
The value for `COc1ccc2c(=O)n3c(cc2c1)CCCC3` was 80 °C; that for `O=C(O)c1cc(S(=O)(=O)O)ccc1O` was 120 °C; that for `ClC(Br)C(Cl)Br` (centres undefined) was -26 °C.
In turn, `Nc1ccc(S(=O)(=O)Nc2ncccn2)cc1` displayed a melting point of 254 °C.
Compound `O=C1CCCCCCN1` returned a melting point of 36.5 °C.
`O=C(O)COc1ccc(C(=O)c2cccs2)c(Cl)c1Cl` registered a melting point of 149 °C.
The value for `CC(C)(C)C(O)C(=Cc1ccc(Cl)cc1)n1cncn1` (centres undefined) was 153 °C; that for `FC(F)(Cl)C(Cl)(Cl)C(F)(F)Cl` was -42.9 °C.
Compound `CSc1nc(N)c(C#N)s1` gave a melting point of 207 to 210 °C.
With `CSC(=NS(=O)(=O)c1ccccc1)SC` the figure was 105 to 107 °C.
With `C=C1C(=O)C23C4CC5C(C)(C)CCC(OC(C)=O)C5(C(OC(C)=O)O4)C2C(OC(C)=O)CC1C3OC(C)=O` (centres undefined) the figure was 230 °C; with `CC(NC(=O)COCCN1C(=O)c2ccccc2C1=O)[P+]([O-])(Oc1ccccc1)Oc1ccccc1` (centres undefined), 107 °C.
The value for `CC(CN1CCOCC1)C(C(=O)N1CCCC1)(c1ccccc1)c1ccccc1` (centres undefined) was 180 °C.
`COc1ccc(C=C2C(=O)NN=C2c2c(O)c3ccccc3n(C)c2=O)cc1` showed a melting point of 250 °C.
With `Cc1cc2ccccc2c(-c2ccccc2)n1` the figure was 87 °C; with `CCCCCCCCCCCCCCCCCCCCC(=O)O`, 74 to 76 °C.
The value for `NNC(=O)c1snnc1-c1ccccc1` was 129 to 130 °C.
As to `O=C(OCCCl)OCCCl`, the melting point was 8 °C.
`O=C1CN=C(c2ccccc2)c2cc(Cl)ccc2N1CC(F)(F)F` registered a melting point of 164 °C.
With `COC(=O)C1=C(N)Oc2cc(C)[nH]c(=O)c2C1c1ccccc1` (centres undefined) the figure was 230 to 232 °C; with `Cc1nc(-c2ccc(N)cc2)cs1`, 140 to 141 °C.
The value for `Cc1ccc2[nH]c(C)c(C)c2c1` was 122 °C; that for `c1ccc(C2=C(c3ccccc3)NC(c3ccncc3)N2)cc1` was 255 to 265 °C.
With `CC1CC(=Cc2ccccc2)C(=O)C(=Cc2ccccc2)C1` (centres undefined) the figure was 100 to 101 °C; with `O=C(O)[C@@H]1Cc2ccccc2CN1C(=O)OCC1c2ccccc2-c2ccccc21`, 146 to 149 °C.
`CCOc1ccccc1F` registered a melting point of -16.7 °C.
With `O=Cc1cc(O)cc(O)c1` the figure was 160 °C; with `Nc1ccccc1/C=C/c1nc2ccccc2[nH]1`, 213 °C.
The value for `C#C[C@@]1(O)CC[C@@H]2[C@@H]3CC[C@@H]4CC(=O)CC[C@]4(C)[C@H]3CC[C@@]21C` was 220 to 221 °C.
With `C=C(C)CCCCCCCCCCCCCCC` the figure was 9 °C; with `CC(C)(Oc1ccc(Cl)cc1)C(=O)OCCOC(=O)c1cccnc1`, 100 °C; with `O=C(C=Nc1ccccc1)c1ccc(C(=O)C=Nc2ccccc2)cc1`, 155 °C.
As for `c1c2c(cc3c1CCCC3)CCCC2`, the melting point worked out at 78 °C.
The value for `O=C(Cc1ccccc1)c1ccc(Br)cc1` was 111 °C.
The value for `Cc1nn(-c2ccccc2)nc1C(N)=O` was 175 to 177 °C.
`CCOC(=O)C1C(c2ccc(F)cc2)C(C(=O)OCC)C(O)(C(F)(F)F)NC1(O)C(F)(F)F` (centres undefined) showed a melting point of 84 °C.
In turn, `CCCCCCCCCC(=O)CCCCCC` displayed a melting point of 37 °C.
With `O=C(O)CCn1c(=O)oc2ccccc21` the figure was 126 to 128 °C; with `O=C(O)CCc1ccc(C(=O)O)cc1`, 290 °C.
With `CC(O)C(Cl)(Cl)Cl` (centres undefined) the figure was 50.5 °C.
The value for `O=C(O)C1(C2=CCCCC2)CCCCC1` was 79 °C.
In turn, `O=C1N[C@H]2CC[C@@H]1C2` returned a melting point of 76.2 °C.
Take `CC(C)Oc1cccc(NC(=O)c2ccccc2C(F)(F)F)c1`: the melting point worked out at 105 °C.
With `O=C(Oc1c(-c2ccccc2)[nH]c2cc([N+](=O)[O-])ccc12)c1ccccc1` the figure was 229 °C; with `O=C(O)c1cnn2ccccc12`, 199 to 201 °C; with `Cc1ccc(S(=O)(=O)Nc2ccccc2C)cc1`, 110 °C.
Compound `COc1ccc2cc1Oc1ccc(cc1)CC1c3cc(c(OC)cc3CCN1C)Oc1c(OC)c(OC)cc3c1C(C2)N(C)CC3` (centres undefined) displayed a melting point of 218 °C.
Turning to `COc1ccc2c(=O)c3ccccc3oc2c1CN1CCCCC1`, the melting point came to 160 °C.
For the compound `O=C1c2ccc([N+](=O)[O-])cc2C(=O)N1CCCBr`, the melting point fell in the range of 104 to 107 °C.
With `Fc1cccc(F)c1` the figure was -59 °C; with `CCN(CC)C(=O)C1=C(C)NC(=O)NC1c1ccccc1` (centres undefined), 181 °C.
On to `O=NN1CCc2ccccc21`, for which the melting point amounted to 83 °C.
Compound `Nc1nnc(-c2ccc([N+](=O)[O-])cc2)s1` registered a melting point of 202 to 204 °C.
With `c1ccc2sc(SNC3CCCCC3)nc2c1` the figure was 98 °C; with `Nc1c(F)ccc(Cl)c1F`, 47 °C.
With `CNC(=O)Oc1ccc(C)c(C)c1Cl` the figure was 124 °C; with `O=C(O)c1ccc(N2CCOCC2)s1`, 135 to 137 °C; with `O=C(O)c1coc2c1C(=O)CCC2`, 140 to 143 °C.
With `COc1ccc(C(=O)Oc2ccc(C(=O)/C=C/c3ccc4c(c3)OCO4)cc2)cc1` the figure was 169 °C; with `CN(C)c1ccc(C=C2C(=O)NC(=O)NC2=O)cc1`, 245 °C.
Compound `CC12CCC(C(=CC(=O)O)C1=O)C2(C)C` (centres undefined) displayed a melting point of 106 °C.
With `CCCCCCCCC(C)CC` (centres undefined) the figure was -58 °C; with `FCCCl`, -50 °C; with `c1ccc(Cc2cc3ccccc3cn2)cc1`, 64 °C.
The value for `O=[N+]([O-])c1cc([N+](=O)[O-])c(Cl)cc1Cl` was 101 °C; that for `COC(=O)C1(C)CCC(CCc2ccccc2)C1(C)C` (centres undefined) was 44 °C; that for `C#CC(O)CCCCC` (centres undefined) was -60 °C.
The value for `Cc1nc(-c2ccccc2)sc1C(=O)Cl` was 122 to 124 °C; that for `CCc1cccc(CC)c1N(COC)C(=O)CCl` was 41 °C.
As for `O=C(OC1OC(=O)c2ccccc21)c1ccccc1` (centres undefined), the melting point fell in the range of 133 to 135 °C.
The value for `CCCCCc1ccc(-c2ccc(C#N)cc2)cc1` was 34 °C.
With `O=C1CCCCCCCCCCCN1` the figure was 152 °C.
With `COc1ccc(C=NC2=NC(C(F)(F)F)N=N2)cc1` (centres undefined) the figure was 172 °C; with `CCNc1ccc2c(C(F)(F)F)cc(=O)oc2c1`, 158 to 159 °C; with `c1c2c(cc3c1CC3)CC2`, 101 °C.
As for `COc1ccccc1Oc1ccc(S(=O)(=O)Cl)cc1`, the melting point was 54 to 56 °C.
The value for `CCS(=O)CCSP(=O)(OC)OC` (centres undefined) was -49 °C.
With `CC(=O)C(C(=O)c1ccccc1)c1cc(Cl)c([N+](=O)[O-])cc1[N+](=O)[O-]` (centres undefined) the figure was 131 °C.
